The source made the active and inactive calls.
Key:
[1] = tested on: Streptococcus sp. 'group A'; assay: growth inhibition of control SK(-) GAS strain, dose response, counter-screen for streptokinase expression inhibitor project, luminescence, kanamycin, BacTiterGlo, confirmation (AID 1900); type: functional, organism-based
Streptokinase A = molecular target: T1, Streptokinase A (Streptococcus pyogenes serotype M1, UniProt P10520); assay: S. pyogenes streptokinase expression inhibitors, potency, dose response, plasminogen activation absorbance, OD405 (AID 1914); type: functional, Streptococcus pyogenes M1 GAS;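 note: secreted streptokinase activity via plasminogen activation per viability signal from cell pellet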
T1 sequence (P10520 whole entry): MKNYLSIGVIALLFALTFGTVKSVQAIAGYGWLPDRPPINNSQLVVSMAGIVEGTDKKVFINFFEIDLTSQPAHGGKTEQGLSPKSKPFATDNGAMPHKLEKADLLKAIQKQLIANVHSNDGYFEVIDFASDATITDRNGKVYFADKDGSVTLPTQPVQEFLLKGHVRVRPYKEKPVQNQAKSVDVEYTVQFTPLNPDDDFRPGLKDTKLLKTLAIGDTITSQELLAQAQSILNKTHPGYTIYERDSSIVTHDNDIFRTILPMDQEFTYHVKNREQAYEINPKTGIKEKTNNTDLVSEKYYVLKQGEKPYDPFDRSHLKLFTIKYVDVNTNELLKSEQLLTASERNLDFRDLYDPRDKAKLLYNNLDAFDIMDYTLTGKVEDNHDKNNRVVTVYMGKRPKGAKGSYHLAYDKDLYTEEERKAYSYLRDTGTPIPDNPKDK

Streptococcus = assay: Group A Streptococcus viability loss, dose response, counter-screen for streptokinase expression inhibitor project, luminescence, BacTiterGlo (AID 1915); type: functional, organism-based;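 note: potency for reduction of bacterial viability or growth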
cells [2] = type: functional, cell-based
cells [3] = type: functional, cell-based; remark: listed apart in the source
Large T antigen = Large T antigen (Simian virus 40, UniProt P03070); type: functional, Betapolyomavirus macacae;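 note: Confirmatory-stage PubChem screen for compounds that inhibit SV40 T antigen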
Chain of Large T antigen (P03070 whole entry): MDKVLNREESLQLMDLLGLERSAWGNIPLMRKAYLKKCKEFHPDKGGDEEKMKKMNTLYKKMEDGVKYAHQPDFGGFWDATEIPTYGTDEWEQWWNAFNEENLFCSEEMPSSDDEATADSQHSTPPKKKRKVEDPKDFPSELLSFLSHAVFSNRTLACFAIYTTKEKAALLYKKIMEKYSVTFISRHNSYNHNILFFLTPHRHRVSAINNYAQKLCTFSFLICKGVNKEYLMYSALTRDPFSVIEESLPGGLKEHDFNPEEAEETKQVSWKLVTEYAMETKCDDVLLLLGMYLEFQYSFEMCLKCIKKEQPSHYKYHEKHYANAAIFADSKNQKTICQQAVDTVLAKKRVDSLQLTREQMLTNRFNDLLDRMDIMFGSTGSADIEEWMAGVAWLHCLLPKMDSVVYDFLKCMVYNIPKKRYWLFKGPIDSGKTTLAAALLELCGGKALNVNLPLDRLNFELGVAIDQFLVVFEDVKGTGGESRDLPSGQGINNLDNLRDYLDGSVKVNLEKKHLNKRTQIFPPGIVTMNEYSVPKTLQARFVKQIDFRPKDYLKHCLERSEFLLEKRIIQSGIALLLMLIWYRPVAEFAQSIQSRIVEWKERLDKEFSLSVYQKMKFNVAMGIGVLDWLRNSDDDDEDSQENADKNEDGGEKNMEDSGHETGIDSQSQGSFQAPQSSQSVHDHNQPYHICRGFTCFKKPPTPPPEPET

[4] = molecular target: FAD-linked sulfhydryl oxidase ALR (Homo sapiens, UniProt P55789); assay: inhibitors of human ALR sulfhydryl oxidase, dose response, biochemical, H2O2 detection, luminescence, cherry-pick (AID 493248)
Chain of FAD-linked sulfhydryl oxidase ALR (P55789 whole entry): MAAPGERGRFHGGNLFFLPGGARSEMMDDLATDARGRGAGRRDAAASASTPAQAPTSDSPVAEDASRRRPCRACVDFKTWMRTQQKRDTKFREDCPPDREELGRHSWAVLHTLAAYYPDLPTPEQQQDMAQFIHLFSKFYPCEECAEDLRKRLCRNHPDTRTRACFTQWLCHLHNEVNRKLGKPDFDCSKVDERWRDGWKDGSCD

Nonstructural protein 1 = Nonstructural protein 1 (Influenza A virus, UniProt Q194T2); type: functional, Influenza A virus (A/California/07/2009(H1N1))
Chain of Nonstructural protein 1 (Q194T2 whole entry): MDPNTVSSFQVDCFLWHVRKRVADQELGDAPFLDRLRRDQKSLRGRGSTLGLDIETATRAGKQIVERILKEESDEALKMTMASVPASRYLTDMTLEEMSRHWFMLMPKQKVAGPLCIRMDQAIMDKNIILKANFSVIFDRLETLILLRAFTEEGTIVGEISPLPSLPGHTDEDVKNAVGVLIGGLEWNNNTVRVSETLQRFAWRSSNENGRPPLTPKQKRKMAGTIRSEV

Genome polyprotein = Genome polyprotein (dengue virus type 2, UniProt P29990); assay: Dengue-2 NS5 methyltransferase inhibitors, primary screen, biochemical, confirmation dose response (AID 588689); type: functional
Chain of Genome polyprotein (P29990 2492-3391 limits assumed): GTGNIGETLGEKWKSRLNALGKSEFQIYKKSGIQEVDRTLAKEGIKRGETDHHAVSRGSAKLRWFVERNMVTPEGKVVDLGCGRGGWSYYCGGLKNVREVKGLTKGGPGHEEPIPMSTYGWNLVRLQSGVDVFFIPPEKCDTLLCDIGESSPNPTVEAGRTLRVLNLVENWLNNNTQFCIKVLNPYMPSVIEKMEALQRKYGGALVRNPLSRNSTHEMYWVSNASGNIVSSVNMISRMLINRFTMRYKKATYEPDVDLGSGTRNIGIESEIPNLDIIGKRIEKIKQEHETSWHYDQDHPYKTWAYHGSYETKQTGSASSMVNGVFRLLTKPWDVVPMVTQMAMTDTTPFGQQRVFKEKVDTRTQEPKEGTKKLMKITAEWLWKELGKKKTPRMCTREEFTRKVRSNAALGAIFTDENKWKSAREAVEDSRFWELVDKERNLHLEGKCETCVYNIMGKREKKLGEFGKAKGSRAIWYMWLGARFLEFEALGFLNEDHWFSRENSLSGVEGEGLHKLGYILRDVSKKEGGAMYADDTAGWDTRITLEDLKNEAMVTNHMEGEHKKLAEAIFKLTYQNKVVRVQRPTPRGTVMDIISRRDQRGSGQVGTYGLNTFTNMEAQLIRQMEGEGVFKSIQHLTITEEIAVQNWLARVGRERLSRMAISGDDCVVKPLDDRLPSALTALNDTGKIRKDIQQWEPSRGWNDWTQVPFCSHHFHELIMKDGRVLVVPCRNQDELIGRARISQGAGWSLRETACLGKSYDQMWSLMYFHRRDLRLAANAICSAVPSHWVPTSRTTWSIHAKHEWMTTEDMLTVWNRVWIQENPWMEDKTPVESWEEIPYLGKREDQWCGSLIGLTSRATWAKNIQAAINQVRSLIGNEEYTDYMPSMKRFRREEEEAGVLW

[5] = molecular target: T2, Rac GTPase-activating protein 1 (Homo sapiens, UniProt Q9H0H5); assay: MgcRacGAP GTPase-activating activity inhibitors, confirmation, biochemical, ADP Hunter fluorescence, primary and confirmatory (AID 624330); type: functional
T2 sequence (Q9H0H5 whole entry): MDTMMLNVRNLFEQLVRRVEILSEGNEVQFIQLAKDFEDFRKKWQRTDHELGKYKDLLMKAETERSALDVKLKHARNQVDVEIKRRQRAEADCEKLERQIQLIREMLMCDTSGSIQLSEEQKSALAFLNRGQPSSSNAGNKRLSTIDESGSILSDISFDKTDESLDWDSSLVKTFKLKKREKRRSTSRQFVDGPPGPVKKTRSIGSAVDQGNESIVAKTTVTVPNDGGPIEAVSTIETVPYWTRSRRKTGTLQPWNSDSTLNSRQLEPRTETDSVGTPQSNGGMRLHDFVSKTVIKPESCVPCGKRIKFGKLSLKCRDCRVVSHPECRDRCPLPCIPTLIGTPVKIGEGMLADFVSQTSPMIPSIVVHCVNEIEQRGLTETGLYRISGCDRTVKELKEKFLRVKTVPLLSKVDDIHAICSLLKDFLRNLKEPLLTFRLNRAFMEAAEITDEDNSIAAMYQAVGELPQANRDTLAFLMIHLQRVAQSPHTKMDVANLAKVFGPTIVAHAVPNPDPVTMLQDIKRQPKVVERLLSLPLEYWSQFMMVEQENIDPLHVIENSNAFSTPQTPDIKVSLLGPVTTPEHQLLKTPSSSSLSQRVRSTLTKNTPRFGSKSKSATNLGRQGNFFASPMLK

[6] = HEp-2 cell cytotoxicity, dose response, cytotoxicity control for RSV inhibitor project, HTS (AID 2410); type: functional; settings: human respiratory syncytial virus
[7] = growth suppression of PTEN-null colon cells, dose response, cell-based, HCT116 PTEN knockout (AID 1047); type: functional;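 note: HCT116 colon tumor cells with PTEN knocked out; cells exposed to compound for 60 hours before readout; potency for loss of cell viability measured by luminescence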
[8] = growth suppression of beta-catenin-knockout colon cells, dose response, cell-based, HCT116, human colon tumor (AID 1045); type: functional;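 note: HCT116 colon tumor cells with beta catenin knocked out; cells exposed to compound for 60 hours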
[9] = P. falciparum Dd2 growth inhibitors, dose response, SYBR Green, cherry-picked samples (AID 1159567); type: functional, cell-based
Paired box protein Pax-8 = Paired box protein Pax-8 (Homo sapiens, UniProt Q06710); assay: inhibitors of PAX8-driven TPO luciferase reporter, dose response, RMG-I cells, cherry-pick (AID 687027); type: functional, cell-based;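 note: luciferase reporter driven by Pax8 target thyroperoxidase promoter measured by SteadyGlo luminescence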
Chain of Paired box protein Pax-8 (Q06710 whole entry): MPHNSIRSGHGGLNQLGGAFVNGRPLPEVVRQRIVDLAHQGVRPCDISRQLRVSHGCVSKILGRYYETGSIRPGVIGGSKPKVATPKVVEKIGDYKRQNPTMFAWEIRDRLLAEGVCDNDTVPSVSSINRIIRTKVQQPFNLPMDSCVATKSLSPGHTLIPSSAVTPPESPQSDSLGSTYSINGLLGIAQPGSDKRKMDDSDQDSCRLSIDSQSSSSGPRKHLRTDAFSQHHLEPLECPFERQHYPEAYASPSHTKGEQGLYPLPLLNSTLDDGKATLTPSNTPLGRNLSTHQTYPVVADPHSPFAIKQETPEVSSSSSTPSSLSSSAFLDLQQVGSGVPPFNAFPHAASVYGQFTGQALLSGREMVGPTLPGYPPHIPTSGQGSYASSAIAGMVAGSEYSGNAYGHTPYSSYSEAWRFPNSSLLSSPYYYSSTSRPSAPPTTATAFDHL

[10] = Luminescence Cell-Based Dose Response HTS to Identify Activators of Luciferase Translation or Activity in H4 […] Cells. [Related pubchem assays: 1829 (Project Summary), 1814 (Primary HTS)]; type: functional
H4 = assay: Luminescence Cell-Based Dose Response HTS to Identify Activators of 5'UTR Stem-Loop Driven Prion Protein mRNA Translation in H4 Neuroglioblastoma Cells. [Related pubchem assays: 1829 (Project Summary), 1814 (Primary HTS)]; type: functional; settings: Homo sapiens
[11] = control 3'UTR Renilla luciferase suppression, dose response, counter-screen for Shn3 inhibitor project, cell-based, Clone20-Shn3RL, cherry-picked (AID 624133); type: functional

Question: Which EC50 [1] does the source give for `CC1=C(C(=O)O)N2C(=O)C(NC(=O)Cc3ccccc3)C2SC1` (stereo unspecified) here?
Answer: 1.22 µM (active)

Question: And the EC50 (Streptokinase A)?
Answer: > 150 µM (not active)

Question: What about the EC50 (Streptococcus) of the same compound?
Answer: 2.68 µM (active)

Question: With `Cc1ccc(-c2nnn(CC(=O)N(Cc3cccs3)C(C(=O)NC3CCCCC3)c3ccco3)n2)o1` (stereo unspecified) as the compound, how does the EC50 (cells [2]) read?
Answer: > 350 µM (not active)

Question: And the EC50 (cells [3])?
Answer: > 350 µM (not active)

Question: What does the source list for `COc1ccc(NC2CCCN(C(=O)c3c(C)noc3C)C2)cc1` (stereo unspecified)?
Answer: IC50 (Large T antigen): 24 µM (active); AC50 [4]: 3.46 µM (active)

Question: Which IC50 (Nonstructural protein 1) does the source give for `CC1=NN(c2ccccc2)C(=O)/C1=C\c1sccc1C` here?
Answer: > 100 µM (active)

Question: With `O=C1NC(=O)C(=Cc2coc3ccc(O)cc3c2=O)C(=O)N1` as the compound, how does the IC50 (Genome polyprotein) read?
Answer: > 100 µM (active)

Question: What about the IC50 [5] of the same compound?
Answer: 150 µM (active)

Question: Which results are given for `O=C(Oc1ccc(-c2cnc3ccccc3n2)cc1)c1ccc(Cl)c([N+](=O)[O-])c1`?
Answer: CC50 [6]: 25.1 µM (active); EC50 [1]: 11.5 µM (active); EC50 (Streptokinase A): > 150 µM (not active); EC50 [7]: 48.9 µM (active); EC50 [8]: 34.6 µM (active); EC50 (Streptococcus): 114 µM (active)

Question: For `CC/C(=N\NC(=O)CCC(=O)NCc1ccccc1)c1ccc(O)cc1`, which IC50 (Large T antigen) is on record?
Answer: 34.6 µM (active)

Question: With `Cc1noc(NS(=O)(=O)c2ccc(NC(=O)c3ccccc3NS(=O)(=O)c3ccc(F)c(F)c3)cc2)c1C` as the compound, how does the IC50 (Genome polyprotein) read?
Answer: 33.2 µM (active)

Question: For `COc1ccc2c3c(n(C)c2c1)[C@@H](CO)N(Cc1ccccc1F)CC31CCN(CC2CC2)CC1`, which AC50 [9] is on record?
Answer: 2.61 µM (active)

Question: For `O=C(Nc1ccc(F)cc1)N1CCCCN2[C@@H](CO)[C@@H](c3ccc(-c4cccc(F)c4)cc3)[C@@H]2C1`, which AC50 (Paired box protein Pax-8) is on record?
Answer: 21.3 µM (active)

Question: Which EC50 [10] does the source give for `O=C(Nc1ccc(Cl)c(Cl)c1)c1ccc(Cn2cc(Cl)cn2)cc1` here?
Answer: 38.1 µM (active)

Question: And the EC50 (H4)?
Answer: > 120 µM (not active)

Question: Which AC50 [11] does the source give for `COc1ccc(S(=O)(=O)NCCC(=O)OCC(=O)NC2CC2)cc1` here?
Answer: 33.7 µM (active)

Question: What does the source list for `CS(=O)(=O)c1ccc2nc(NC(=O)C3CC3)sc2c1`?
Answer: EC50 (cells [2]): > 350 µM (not active); EC50 (cells [3]): > 350 µM (not active)

Question: Which IC50 (Genome polyprotein) does the source give for `O=C1NC(=O)C(=Cc2ccc(N3CCN(C(=O)c4ccccc4)CC3)c([N+](=O)[O-])c2)C(=O)N1` here?
Answer: 19.8 µM (active)

Question: With `COc1ccc(N=Nc2c(N)n[nH]c2N)cc1` as the compound, how does the IC50 (Large T antigen) read?
Answer: 12 µM (active)

Question: And the AC50 [4]?
Answer: 17 µM (active)

Question: Which IC50 (Large T antigen) does the source give for `N/C(=N\[N+](=O)[O-])N/N=C/c1ccc(O)cc1` here?
Answer: > 100 µM (active)

Question: What about the IC50 [5] of the same compound?
Answer: 20.4 µM (active)

Question: Which AC50 [9] does the source give for `COc1ccc(C#Cc2ccc3c(c2)[C@@H]2[C@@H](CCN2C(=O)C2CC2)[C@H](CO)N3)cc1` here?
Answer: 5.56 µM (active)
